# In US20100284984A1, “ADENOSINE AND ITS MIMETICS. MODULATORS, TRANSPORT INHIBITORS, AND RECEPTOR AGONISTS AS A THERAPEUTIC TOOL TO REPLACE OR IMPROVE THE EFFICACY OF DEEP BRAIN STIMULATION” (University of Rochester, priority 2007, published 2010):
# Entries after “also recorded” stand apart in the source; their conditions may differ.
# How the values were obtained:
# [1] = target: T1, Ecto-5′-nucleotidase CD73 (Rattus norvegicus, UniProt P21588); conditions: Sato et al., rat hearts; cited from earlier work
# T1 sequence (P21588 29-551): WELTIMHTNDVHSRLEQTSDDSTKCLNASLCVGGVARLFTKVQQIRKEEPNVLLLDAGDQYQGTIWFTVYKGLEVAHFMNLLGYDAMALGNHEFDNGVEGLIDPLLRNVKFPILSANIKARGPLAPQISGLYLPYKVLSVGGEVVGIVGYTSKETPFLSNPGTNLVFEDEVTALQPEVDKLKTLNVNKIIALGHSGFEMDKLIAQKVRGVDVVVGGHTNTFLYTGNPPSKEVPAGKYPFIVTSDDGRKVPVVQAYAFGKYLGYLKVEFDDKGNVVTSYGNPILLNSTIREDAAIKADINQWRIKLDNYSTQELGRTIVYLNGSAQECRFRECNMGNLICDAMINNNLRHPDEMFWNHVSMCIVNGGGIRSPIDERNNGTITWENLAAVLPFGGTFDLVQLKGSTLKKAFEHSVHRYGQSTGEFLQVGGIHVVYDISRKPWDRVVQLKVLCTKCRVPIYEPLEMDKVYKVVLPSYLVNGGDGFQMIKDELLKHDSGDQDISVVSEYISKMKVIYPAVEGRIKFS
# adenosine deaminase = target: T2, adenosine deaminase (Homo sapiens, UniProt P00813); conditions: at 27° C.; cited from earlier work
# T2 sequence (P00813 1-363): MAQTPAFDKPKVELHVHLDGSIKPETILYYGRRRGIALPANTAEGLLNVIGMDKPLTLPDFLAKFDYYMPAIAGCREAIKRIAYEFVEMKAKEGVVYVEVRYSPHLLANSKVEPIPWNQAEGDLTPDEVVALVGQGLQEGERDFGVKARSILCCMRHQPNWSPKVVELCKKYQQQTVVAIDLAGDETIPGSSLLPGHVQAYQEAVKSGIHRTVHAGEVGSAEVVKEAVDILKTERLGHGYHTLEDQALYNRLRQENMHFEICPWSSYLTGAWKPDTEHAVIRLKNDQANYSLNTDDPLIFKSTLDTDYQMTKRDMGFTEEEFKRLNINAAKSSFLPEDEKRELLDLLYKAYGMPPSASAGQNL
# Ecto-ATPase [2] = conditions: Chen et al.; cited from earlier work
# Ecto-ATPase [3] = conditions: Yegutkin et al., rat liver plasma membranes; cited from earlier work
# Ecto-ATPase [4] = conditions: range over Crack et al.; Dowd et al.; Stout et al.; cited from earlier work
# thalamic neurons [5] = experiment: HFS-induced depression of eEPSPs in thalamic slices, pharmacology; format: cell-based, mouse
# thalamic neurons [6] = experiment: Drug effect on evoked EPSPs (eEPSP) in thalamic slices, current clamp; format: cell-based, mouse; conditions: DPCPX 100 nM
# Procedure: Thalamic slices (300 μm) from 14-18 day old mouse pups (FVB/NJ mice; Jackson Laboratory) were cut on a Vibratome (TPI) in an ice-cold cutting solution containing (in mM): 2.5 KCl, 1.25 NaH2PO4, 10 MgSO4, 5 CaCl2, 10 glucose, 26 NaHCO3, 230 sucrose and gassed with 5% CO2 and 95% O2. Slices were incubated for a minimum of 1 hr in a slice solution containing (in mM): 126 NaCl, 2.5 KCl, 1.25 NaH2PO4, 2 MgCl2, 2 CaCl2, 10 glucose, and 26 NaHCO3, pH 7.4, and gassed with 5% CO2 and 95% O2 at room temperature. The slices were transferred to a recording chamber (1.5 ml) perfused with aCSF at room temperature or 32° C. Whole-cell current clamp recordings were obtained using a 700B Multiclamp amplifier (Axon Instruments) (Jiang et al., “A Kainate Receptor Increases The Efficacy of Gabaergic Synapses,” Neuron 30:503-13 (2001); Tian et al., “An Astrocytic Basis of Epilepsy,” Nat Med 11:973-81 (2005), which are hereby incorporated by reference in their entirety). Concentric bipolar stimulating electrodes (FHC) were placed ˜100-400 μm ventromedial to the patched VL thalamic neuron. Stimulation was delivered through a constant isolated current source (ISO-Flex stimulus isolator with a Master-8-vp stimulator; AMPI) and consisted of monophasic 60 μs square pulses of varying amplitude (15, 25, 50 μA) and frequency (25, 75, 125, 200 Hz). Based upon maximum current amplitude and the surface area of the electrode, it is estimated that the maximum charge density was in the range of ˜1-10 μC/cm^2. The artifacts of the HFS signal were blanked and staggered to allow continuous observation of the 2.5 Hz signal (Anderson et al., “Selective Attenuation of Afferent Synaptic Transmission as a Mechanism of Thalamic Deep Brain Stimulation-Induced Tremor Arrest,” J Neurosci 26:841-50 (2006), which is hereby incorporated by reference in its entirety). Adenosine measurements were detected using needle shaped electrode (Pt/Ir wire) biosensors (Sarissa Biomedical). Calibration was carried out at the beginning and end of each slice experiment in the bath above the slice. Measurements were obtained ˜100 μm from the stimulation electrode in the thalamic slice. […].
# To further analyze the role of adenosine in HFS, the effect of perfusion with an aCSF containing 1-100 μM adenosine in thalamic slices was studied. […]. […] The AMPA receptor antagonist, CNQX could not be tested due to its direct effect on EPSCs (Wang et al., “Astrocytic Ca(2+) Signaling Evoked by Sensory Stimulation in Vivo,” Nat Neurosci 9:816-23 (2006), which is hereby incorporated by reference in its entirety) (FIG. 3G). […]. […]
# harmaline-induced tremor = experiment: DBS therapeutic window in harmaline-induced tremor; format: in vivo; conditions: APV and CNQX 10 mg/kg each i.p.; DPCPX 4 mg/Kg i.p.
# Procedure: Harmaline was administed i.p. 20 min prior to DBS (20-30 mg/kg) (Wilms et al., “Animal Models of Tremor,” Mov Disord 14:557-71 (1999); Martin et al., “Harmaline-Induced Tremor as a Potential Preclinical Screening Method for Essential Tremor Medications,” Mov Disord 20:298-305 (2005), which are hereby incorporated by reference in their entirety). […] For electrode and microdialysis implantation, mice were anaesthetized with a mixture of Ketamine (60 mg/kg) and Xylazine (10 mg/kg) and placed into a stereotactic frame. The skull was exposed and concentric bipolar microelectrodes (SNE-100, KOPF) or microdialysis probes (Bioanalytical Systems, Inc.) were implanted into the ventrolateral thalamic nucleus at the following coordinates: AP: −1.4 mm; ML: ±0.9 mm; DV: −3.7 mm. The electrodes or microdialysis probes were attached to the skull with dental cement. […] Tremor was recorded by either EMG electrodes placed in the occipital muscles or by the Convuls-1 pressure transducer (Columbus Instruments) in awake freely moving animals. […]
# . […] The minimal efficient current amplitude of DBS was determined by methodically changing the stimulation parameters (FIG. 4C). […]
# thalamic neurons [7] = experiment: HFS-induced membrane depolarization of thalamic neurons; format: cell-based, mouse; conditions: thalamic slices during HFS
# Rat Parotid Ecto-ATPase = conditions: Dowd et al.; cited from earlier work
compound,measurement,setting,value
COc1ccc(Cl)cc1C(=O)NCCc1ccc(S(=O)(=O)NC(=O)NC2CCCCC2)cc1 [giberclamide],IC50,[1],10.5 µM
CC(=O)Nc1ccc(O)cc1 [acetaminophen],Ki,adenosine deaminase,126 µM
Cc1ccc(C(=O)Nc2ccc(S(=O)(=O)O)c3cc(S(=O)(=O)O)cc(S(=O)(=O)O)c23)cc1NC(=O)c1cccc(NC(=O)Nc2cccc(C(=O)Nc3cc(C(=O)Nc4ccc(S(=O)(=O)O)c5cc(S(=O)(=O)O)cc(S(=O)(=O)O)c45)ccc3C)c2)c1 [suramin],Ki,Ecto-ATPase [2],44 µM
same,pIC 50,Ecto-ATPase [3],4.57
same,IC50,Ecto-ATPase [4],46 to 114 µM
CCCn1c(=O)c2[nH]c(C3CCCC3)nc2n(CCC)c1=O [DPCPX],time for EPSPs to recover to pre-stimulation values after HFS,"thalamic neurons [5]; 300 nM, directly stimulated pathways",12.4 ± 6.1 s
same,"effect on HFS-induced depression of eEPSPs, heterosynaptic pathways","thalamic neurons [5]; HFS 125 Hz, 250 μA, 10 sec, 32° C., separate electrodes",attenuated the depression of eEPSPs; also recorded: potently attenuated the HFS-induced suppression of eEPSPs
same,"effect on HFS-induced depression of eEPSPs, homosynaptic (directly stimulated) pathways",thalamic neurons [5]; same electrode for HFS and eEPSPs,"reduced depression of eEPSPs after, but not during, HFS; also recorded: attenuated this reduction following, but not during HFS"
same,effect on adenosine-induced reduction of eEPSPs,thalamic neurons [6],blocked the effect of adenosine; also recorded: reversibly attenuated the reduction
same,effect on the ability of DBS to reduce harmaline-induced tremor,harmaline-induced tremor,involuntary movements rather than tremor reduction
same,threshold for DBS-induced involuntary movements,harmaline-induced tremor,developed involuntary movements at stimulation intensities below the therapeutic range
same,effect on HFS-induced depolarization,thalamic neurons [7],no effect
reactive blue,IC50,Rat Parotid Ecto-ATPase,28 µM
same,pIC 50,Ecto-ATPase [3],4.3
